Laboratory results: patent US8987195B2 (priority 2012, dated 2015)
Read-outs that look alike come from different tables or passages of the source.

Legend:
HCV genotype 1b replicon = test: HCV replicon assay, genotype 1b replicon EC50; format: cell-based, Hepatitis C virus; settings: Hepatitis C virus, genotype 1b replicon, read-out: EC50 [gt-1b]
Summary of the method: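 Assay format: compound titration on stable replicon cells, no G418 during treatment, 24 to 48 hours. Lysates were assayed for replicon RNA (hybridization/protection or TaqMan) or luciferase; EC50 fitted to four parameters against DMSO.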

[1] = target: HCV NS3/4A protease genotype 1b (Hepatitis C virus genotype 1b, UniProt P26663); test: HCV NS3/4A protease time-resolved fluorescence (TRF) assay, Ki against genotype 1b; format: biochemical; settings: IC50 [gt-1b] (nM), NS3/4A genotype 1b, enzyme 0.2 nM
Summary of the method: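 First, protease (genotype 1b 0.2 nM, A156T 0.4 nM, genotype 3a 0.025 nM) is preincubated 30 min with inhibitor. Next, 25 nM TRF substrate starts the reaction, run 2.5 h at room temperature. Finally, europium fluorescence is read and Ki calculated from IC50.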

Row | SMILES | EC50 (HCV genotype 1b replicon; K+ salt) | IC50 ([1]; K+ salt) | EC50 (HCV genotype 1b replicon) | IC50 [1]
1 | COc1ccc2nc(C)c3c(c2c1)CC[C@]1(C[C@H]2C(=O)N[C@]4(C(=O)NS(=O)(=O)C5(C)CC5)C[C@H]4/C=C\CCCCC[C@H](NC(=O)OC4CCCC4C)C(=O)N2C1)O3 (stereo partly drawn) [Example 200, 2-methylcyclopentyl [(2R,6S,12Z,13aS,14aR,16aS)-9′-methoxy-5′-methyl-14a-{[(1-methylcyclopropyl)sulfonyl]carbamoyl}-5,16-dioxo-1,1′,2′,5,6,7,8,9,10,11,13a,14,14a,15,16,16a-hexadecahydrospiro[cyclopropa[e]pyrrolo[1,2-a][1,4]diazacyclopentadecine-2,3′-pyrano[2,3-c]quinolin]-6-yl]carbamate] | 0.369 nM | 0.005 nM |  | 
2 | Cc1nc2cc(F)c(F)cc2c2c1O[C@]1(CC2)C[C@H]2C(=O)N[C@]3(C(=O)NS(=O)(=O)C4(C)CC4)C[C@H]3/C=C\CCCCC[C@H](NC(=O)OCC(C)C)C(=O)N2C1 [Example 201, 2-methylpropyl [(2R,6S,12Z,13aS,14aR,16aS)-8′,9′-difluoro-5′-methyl-14a-{[(1-methylcyclopropyl)sulfonyl]carbamoyl}-5,16-dioxo-1,1′,2′,5,6,7,8,9,10,11,13a,14,14a,15,16,16a-hexadecahydrospiro[cyclopropa[e]pyrrolo[1,2-a][1,4]diazacyclopentadecine-2,3′-pyrano[2,3-c]quinolin]-6-yl]carbamate] | 0.91 nM | 0.007 nM |  | 
3 | Cc1nc2cc(F)c(F)cc2c2c1O[C@]1(CC2)C[C@H]2C(=O)N[C@]3(C(=O)NS(=O)(=O)C4(C)CC4)C[C@H]3/C=C\CCCCC[C@H](NC(=O)OCC(C)(C)C)C(=O)N2C1 [Example 202, 2,2-dimethylpropyl [(2R,6S,12Z,13aS,14aR,16aS)-8′,9′-difluoro-5′-methyl-14a-{[(1-methylcyclopropyl)sulfonyl]carbamoyl}-5,16-dioxo-1,1′,2′,5,6,7,8,9,10,11,13a,14,14a,15,16,16a-hexadecahydrospiro[cyclopropa[e]pyrrolo[1,2-a][1,4]diazacyclopentadecine-2,3′-pyrano[2,3-c]quinolin]-6-yl]carbamate] | 1.43 nM | 0.009 nM |  | 
4 | COc1ccc2nc(C)c3c(c2c1)CC[C@]1(C[C@H]2C(=O)N[C@]4(C(=O)NS(=O)(=O)C5(C)CC5)C[C@H]4/C=C\CCCCC[C@H](NC(=O)OCC(C)(C)C)C(=O)N2C1)O3 [Example 205, 2,2-dimethylpropyl [(2R,6S,12Z,13aS,14aR,16aS)-9′-methoxy-5′-methyl-14a-{[(1-methylcyclopropyl)sulfonyl]carbamoyl}-5,16-dioxo-1,1′,2′,5,6,7,8,9,10,11,13a,14,14a,15,16,16a-hexadecahydrospiro[cyclopropa[e]pyrrolo[1,2-a][1,4]diazacyclopentadecine-2,3′-pyrano[2,3-c]quinolin]-6-yl]carbamate] | 0.647 nM | 0.005 nM |  | 
5 | COc1ccc2nc(C)c3c(c2c1)CC[C@]1(C[C@H]2C(=O)N[C@]4(C(=O)NS(=O)(=O)C5(C)CC5)C[C@H]4/C=C\CCCCC[C@H](NC(=O)OC4CCCCC4)C(=O)N2C1)O3 [Example 206, cyclohexyl [(2R,6S,12Z,13aS,14aR,16aS)-9′-methoxy-5′-methyl-14a-{[(1-methylcyclopropyl)sulfonyl]carbamoyl}-5,16-dioxo-1,1′,2′,5,6,7,8,9,10,11,13a,14,14a,15,16,16a-hexadecahydrospiro[cyclopropa[e]pyrrolo[1,2-a][1,4]diazacyclopentadecine-2,3′-pyrano[2,3-c]quinolin]-6-yl]carbamate] | 0.808 nM | 0.005 nM |  | 
6 | COCC(C)(C)OC(=O)N[C@H]1CCCCC/C=C\[C@@H]2C[C@@]2(C(=O)NS(=O)(=O)C2(C)CC2)NC(=O)[C@@H]2C[C@]3(CCc4c(c(C)nc5ccc(OC(F)(F)F)cc45)O3)CN2C1=O [Example 207, 1-methoxy-2-methylpropan-2-yl [(2R,6S,12Z,13aS,14aR,16aS)-5′-methyl-14a-{[(1-methylcyclopropyl)sulfonyl]carbamoyl}-5,16-dioxo-9′-(trifluoromethoxy)-1,1′,2′,5,6,7,8,9,10,11,13a,14,14a,15,16,16a-hexadecahydrospiro[cyclopropa[e]pyrrolo[1,2-a][1,4]diazacyclopentadecine-2,3′-pyrano[2,3-c]quinolin]-6-yl]carbamate] |  |  | 1.08 nM | 0.007 nM
7 | COCCC(C)(C)OC(=O)N[C@H]1CCCCC/C=C\[C@@H]2C[C@@]2(C(=O)NS(=O)(=O)C2(C)CC2)NC(=O)[C@@H]2C[C@]3(CCc4c(c(C)nc5ccc(OC(F)(F)F)cc45)O3)CN2C1=O [Example 208, 4-methoxy-2-methylbutan-2-yl [(2R,6S,12Z,13aS,14aR,16aS)-5′-methyl-14a-{[(1-methylcyclopropyl)sulfonyl]carbamoyl}-5,16-dioxo-9′-(trifluoromethoxy)-1,1′,2′,5,6,7,8,9,10,11,13a,14,14a,15,16,16a-hexadecahydrospiro[cyclopropa[e]pyrrolo[1,2-a][1,4]diazacyclopentadecine-2,3′-pyrano[2,3-c]quinolin]-6-yl]carbamate] |  |  | 2.05 nM | 0.009 nM
8 | COc1ccc2nc(C(C)C)c3c(c2c1)C(F)(F)C[C@]1(C[C@H]2C(=O)N[C@]4(C(=O)NS(=O)(=O)C5(C)CC5)C[C@H]4/C=C\CCCCC[C@H](NC(=O)OC4CCCC4)C(=O)N2C1)O3 [Example 210, cyclopentyl [(2S,6S,12Z,13aS,14aR,16aS)-1′,1′-difluoro-9′-methoxy-14a-{[(1-methylcyclopropyl)sulfonyl]carbamoyl}-5,16-dioxo-5′-(propan-2-yl)-1,1′,2′,5,6,7,8,9,10,11,13a,14,14a,15,16,16a-hexadecahydrospiro[cyclopropa[e]pyrrolo[1,2-a][1,4]diazacyclopentadecine-2,3′-pyrano[2,3-c]quinolin]-6-yl]carbamate] |  |  | 2.38 nM | 0.008 nM
9 | COc1ccc2nc(C(C)C)c3c(c2c1)C(F)(F)C[C@]1(C[C@H]2C(=O)N[C@]4(C(=O)NS(=O)(=O)C5(C)CC5)C[C@H]4/C=C\CCCCC[C@H](NC(=O)OCC(C)C)C(=O)N2C1)O3 [Example 211, 2-methylpropyl [(2S,6S,12Z,13aS,14aR,16aS)-1′,1′-difluoro-9′-methoxy-14a-{[(1-methylcyclopropyl)sulfonyl]carbamoyl}-5,16-dioxo-5′-(propan-2-yl)-1,1′,2′,5,6,7,8,9,10,11,13a,14,14a,15,16,16a-hexadecahydrospiro[cyclopropa[e]pyrrolo[1,2-a][1,4]diazacyclopentadecine-2,3′-pyrano[2,3-c]quinolin]-6-yl]carbamate] |  |  | 3.54 nM | 0.006 nM
10 | COc1ccc2nc(C(F)(F)F)c3c(c2c1)CC[C@]1(C[C@H]2C(=O)N[C@]4(C(=O)NS(=O)(=O)C5(C)CC5)C[C@H]4/C=C\CCCCC[C@H](NC(=O)OC4(C)CC4)C(=O)N2C1)O3 [Example 216, 1-methylcyclopropyl [(2R,6S,12Z,13aS,14aR,16aS)-9′-methoxy-14a-{[(1-methylcyclopropyl)sulfonyl]carbamoyl}-5,16-dioxo-5′-(trifluoromethyl)-1,1′,2′,5,6,7,8,9,10,11,13a,14,14a,15,16,16a-hexadecahydrospiro[cyclopropa[e]pyrrolo[1,2-a][1,4]diazacyclopentadecine-2,3′-pyrano[2,3-c]quinolin]-6-yl]carbamate] |  |  | 6.43 nM | 0.013 nM
11 | COc1ccc2nc(C(F)(F)F)c3c(c2c1)CC[C@]1(C[C@H]2C(=O)N[C@]4(C(=O)NS(=O)(=O)C5(C)CC5)C[C@H]4/C=C\CCCCC[C@H](NC(=O)OC4CCCC4)C(=O)N2C1)O3 [Example 217, cyclopentyl [(2R,6S,12Z,13aS,14aR,16aS)-9′-methoxy-14a-{[(1-methylcyclopropyl)sulfonyl]carbamoyl}-5,16-dioxo-5′-(trifluoromethyl)-1,1′,2′,5,6,7,8,9,10,11,13a,14,14a,15,16,16a-hexadecahydrospiro[cyclopropa[e]pyrrolo[1,2-a][1,4]diazacyclopentadecine-2,3′-pyrano[2,3-c]quinolin]-6-yl]carbamate] |  |  | 10.3 nM | 0.024 nM
12 | Cc1nc2ccc(F)cc2c2c1O[C@]1(CC2)C[C@H]2C(=O)N[C@]3(C(=O)NS(=O)(=O)C4(C)CC4)C[C@H]3/C=C\CCCCC[C@H](NC(=O)OCC(C)C)C(=O)N2C1 [Example 218, 2-methylpropyl [(2R,6S,12Z,13aS,14aR,16aS)-9′-fluoro-5′-methyl-14a-{[(1-methylcyclopropyl)sulfonyl]carbamoyl}-5,16-dioxo-1,1′,2′,5,6,7,8,9,10,11,13a,14,14a,15,16,16a-hexadecahydrospiro[cyclopropa[e]pyrrolo[1,2-a][1,4]diazacyclopentadecine-2,3′-pyrano[2,3-c]quinolin]-6-yl]carbamate] |  |  | 2.15 nM | 0.005 nM
13 | Cc1nc2ccc(F)cc2c2c1O[C@]1(CC2)C[C@H]2C(=O)N[C@]3(C(=O)NS(=O)(=O)C4(C)CC4)C[C@H]3/C=C\CCCCC[C@H](NC(=O)OC3CCCC3)C(=O)N2C1 [Example 219, cyclopentyl [(2R,6S,12Z,13aS,14aR,16aS)-9′-fluoro-5′-methyl-14a-{[(1-methylcyclopropyl)sulfonyl]carbamoyl}-5,16-dioxo-1,1′,2′,5,6,7,8,9,10,11,13a,14,14a,15,16,16a-hexadecahydrospiro[cyclopropa[e]pyrrolo[1,2-a][1,4]diazacyclopentadecine-2,3′-pyrano[2,3-c]quinolin]-6-yl]carbamate] |  |  | 1.2 nM | 0.004 nM
